Assay results published in patent EP2387997A1, “Use of dronedarone for the preparation of a medicament for the prevention of cardiovascular events in patients who developed permanent atrial fibrillation throughout the period the dronedarone is administered” (SANOFI, priority 2010, dated 2011).
Counter-ions that a name gives are not always drawn. Like-named read-outs stand apart in the source and are kept apart here.

How the values were obtained:
[1] = tested on: patients with persistent atrial fibrillation; settings: cited from earlier work; for effectiveness in increasing the time to a recurrence of atrial fibrillation relative to sotalol / increasing the time to a recurrence of atrial fibrillation: P<0.001; for number of strokes per 100 patient-years of follow-up: persistent atrial fibrillation, placebo 1.91, calculated from the article of Singh et al, page 1866; for increasing the time to a recurrence of atrial fibrillation: versus placebo
[2] = tested on: patients who developed permanent atrial fibrillation/flutter; test: prospective, multinational, double-blind, randomized, multi-center, placebo-controlled, parallel group trial of dronedarone hydrochloride; assay type: in vivo
Method: • Patients in permanent atrial fibrillation • Patients in unstable hemodynamic condition such as acute pulmonary edema within 12 hours prior to start of study medication; cardiogenic shock; treatment with IV pressor agents; patients on respirator; congestive heart failure of stage NYHA IV within the last 4 weeks; uncorrected, hemodynamically significant primary obstructive valvular disease; hemodynamically significant obstructive cardomyopathy; a cardiac operation or revascularization procedure within 4 weeks preceding randomization • Planned major non-cardiac or cardiac surgery or procedures including surgery for valvular heart disease, coronary artery bypass graft (CABG), percutaneous coronary intervention (PCI), or on urgent cardiac transplantation list • Acute myocarditis or constrictive pericarditis • Bradycardia < 50 bpm and/or PR-interval ≥ 0.28 sec on the last 12-lead ECG. • Significant sinus node disease (documented pause of 3 seconds or more) or 2nd or 3rd degree atrioventricular block (AV-block) unless treated with a pacemaker.

stroke = settings: ATHENA trial; cited from earlier work

## CCCCc1oc2ccccc2c1C(=O)c1cc(I)c(OCCN(CC)CC)c(I)c1 [amiodarone]
[1]; analysis according to the treatment actually received
  effectiveness in increasing the time to a recurrence of atrial fibrillation relative to sotalol: four times as effective
[1]; intention-to-treat analysis
  effectiveness in increasing the time to a recurrence of atrial fibrillation relative to sotalol: six times as effective as sotalol
[1]
  number of strokes per 100 patient-years of follow-up: 2.06 per 100 patient-years
  increasing the time to a recurrence of atrial fibrillation: significantly more effective than placebo

## CC(C)NCC(O)c1ccc(NS(C)(=O)=O)cc1 (centres unmarked) [sotalol]
[1]
  number of strokes per 100 patient-years of follow-up: 2.71 per 100 patient-years
  increasing the time to a recurrence of atrial fibrillation: significantly more effective than placebo

## CCCCc1oc2ccc(NS(C)(=O)=O)cc2c1C(=O)c1ccc(OCCCN(CCCC)CCCC)cc1 [dronedarone hydrochloride]
[2]; among the 178 patients who developed permanent atrial fibrillation/flutter on dronedarone hydrochloride, placebo group 24 events (295 patients)
  events (stroke, Acute Coronary Syndrome (ACS) or cardiovascular death): 12 events
[2]; dronedarone versus placebo, Cox's proportional hazard model, patients who developed permanent atrial fibrillation/flutter
  Calculated relative risk of stroke, Acute Coronary Syndrome (ACS) or cardiovascular death: 0.805
[2]; of 2301 patients treated with dronedarone hydrochloride (400 mg of base, one tablet morning and evening, 12 to 30 months), placebo group 295
  patients developed permanent atrial fibrillation/flutter: 178 patients
[2]; x = 1-RR, versus placebo, patients who developed permanent atrial fibrillation/flutter
  decrease of the relative risk of stroke, Acute Coronary Syndrome (ACS) or cardiovascular death: 20%

## CCCCc1oc2ccc(NS(C)(=O)=O)cc2c1C(=O)c1ccc(OCCCN(CCCC)CCCC)cc1 [dronedarone, 2-n-butyl-3-[4-(3-di-n-butylaminopropoxy)benzoyl]-5-methylsulfonamido-benzofuranne]
stroke
  incidence of stroke: ability to reduce the incidence of stroke
